Test results as given in patent US20160331853A1, “COMPOSITIONS FOR RADIOTHERAPY AND USES THEREOF” (The Trustees of Columbia University in the City of New York, priority 2014, published 2016).
Where “and” joins values, the source holds several entries; their conditions need not be identical. Equal values may be shown once.

Columns and labels:
[1] = Example 12: hot and cold Avidin mix binding to talc, repeat with controls, OD 450 nm
Description: The following Example repeated the hot/cold experiment shown in Example 10, with the addition of multiple controls.
1. Prepare 10 mL of 40 ng/mL (or […]) HRP Avidin in 1×PBS using 5.75 mg/mL or 32.5 μM of HRP Avidin stock solution.
6. Weigh 8 mg of Avidin (cold Avidin), then resuspend it in 2 mL of PBS that contains 40 ng/mL of “hot” Avidin. So the solution will now be 40 ng/mL hot Avidin+4 mg/mL of Cold Avidin. Label this tube as #1.
7. Make 3 mL of 1:10 dilution of solution in Tube #1 and make labeled Tube #2 containing 2.7 mL of 40 ng/mL in Hot Avidin solution in PBS+300 μL of Tube #1. The solution in the tube will contain 40 ng/mL of Hot Avidin+400 μg of Cold Avidin.
8. Make 1:2 dilution of solution in Tube #2 using as a diluted solvent of […] of Hot Avidin in PBS. Added 1 mL of Hot Avidin+1 mL of Tube #2. The final concentration will be 40 ng/mL of Hot Avidin+200 μg/mL of Cold Avidin. Label this tube as Tube #3.
9. Make 1:2 dilution of solution in Tube #3, using as a solvent of 40 ng/mL Hot Avidin in PBS Prepare 2 mL of solution: 1 mL of 40 ng/mL of Hot Avidin in PBS+1 mL of Tube #3 The final concentration will be 40 ng/mL of hot Avidin+100 μg/mL of Cold Avidin. Label this tube as Tube #4.
3. Wash the plate 3× with 300 μL PBS containing 10% FBS.
7. Add 100 μL of Stop Solution 2.
8. Read absorbance at 450 nm using the plate reader.

[2] = Example 4: amount of Avidin saturating 100 mg talc, Pierce total protein assay of supernatant; type: binding
From the text: 2. Collect the supernatant from each tube but discard the pellet.
3. Run the Pierce total protein assay using the following dilutions of the collected supernatant.
4. Read plate in the plate reader (absorbance assay) at 660 nm wavelength.

[3] = Example 2: Avidin and Avidin-Rhodamine binding to talc after PBS and 0.2% EDTA washes, fluorescent microscope; conditions: 100 mg talc; 3x PBS, 3x 0.2% EDTA washes
Description: The resulting mixtures were then washed with PBS and then washed with 0.2% EDTA.
3. Mix 1 mL of 100 μM of Avidin with 500 μL of 30.3 μM of Avidin Rhodamine (keep lights off).
4. […] Mix well to bring the dry talc powder to evenly distributed reaction solution.
8. Place tubes on the rotator and incubate overnight at 4° C.
5. Continue to wash all “b” labeled tubes with 0.2% EDTA. Wash 3× in 0.5 mL EDTA.
7. View slides under fluorescent microscope.

[4] = Example 14: talc bound to HRP- and cold Avidin, 48 hours incubation in PBS containing 10% FBS, OD 450 nm; type: physicochemical; conditions: 48 hours in PBS containing 10% FBS
Description: Purpose: To check how strong the conjugate of hot/cold Avidin to Talc is. […] Absorbance will be checked twice—once before washing with PBS containing 10% FBS and after 48 hours, washing will be done.
1. Prepare 10 mL of 40 ng/mL (or 260 μM) HRP Avidin in 1×PBS using 5.75 mg/mL or 32.5 uM of HRP Avidin stock solution.
6. Weigh 8 mg of Avidin (cold Avidin), then resuspend it in 2 mL of PBS containing 40 ng/mL of “hot” Avidin. So the solution will now be 40 ng/mL hot Avidin+4 mg/mL of Cold Avidin. Label this tube as #1.
14. […] Two identical microplates need to be set up, labeling them as: plate#I and plate#2. Design of the plate:
3. Wash both plates 3× with 300 μL PBS.
5. […] Mix constantly, cover plate with Aluminum foil.
6. Add 100 μL of TMB to samples in plate #1.
8. After incubation with TMB is over, add 100 μL of Stop Solution 2.
9. Read absorbance at 450 nm using the plate reader.
3. Collect 100 μL supernatant from samples except native controls and load on same plate.
4. Wash plate except supernatant samples 3× with 300 μL PBS.
6. Add 100 μL of TMB to all samples in plate#2.
8. After incubation with TMB is over add 100 μL of Stop Solution 2.

[5] = Coupling of avidin to talc, binding capacity (general description)
[6] = Example 3: binding Avidin to 100 mg sterile talc, Pierce 660 nm total protein assay of supernatants and washes
Description: Collect the supernatant liquid from two tubes containing the two highest concentrations of Avidin at varying points.
4. Run total protein assay using Pierce microplate kit and read plate in plate reader.
6. Wash all tubes in PBS two times, collecting the supernatant liquid from each wash ONLY from the two highest concentrations of Avidin (tubes labeled 1-2b, 1-2c, and 2-2b, 2-2c).
7. Continue to wash 3× with 0.5 mL of 0.2% EDTA.
8. Collect the supernatant from each wash and transfer to the new tubes only from the original tubes with the highest concentration of Avidin (50 μM and 5 μM). Collect only the FIRST wash with EDTA solution for the other tubes.
10. Run the total protein assay (see e.g., Example 1) using all the collected supernatant liquid.
The shape is similar to a nugget, and the calculations will substitute it's geometry with spheres. […] Less than 5% is below that range, and above that range.

Efficiency of binding, OD ([1]; 1 mg talc, Cold Avidin only 100 ug/mL): 0.31 OD
Efficiency of binding, OD ([1]; 1 mg talc, Cold Avidin only 200 ug/mL): 0.27 OD
Efficiency of binding, OD ([1]; 1 mg talc, Cold Avidin only 400 ug/mL): 0.3 OD
Efficiency of binding, OD ([1]; 1 mg talc, Cold Avidin only 4 mg/mL): 0.33 OD
Efficiency of binding, OD ([1]; 5 mg talc, Cold Avidin only 100 ug/mL): 1.38 OD
Efficiency of binding, OD ([1]; 5 mg talc, Cold Avidin only 200 ug/mL): 1.4 OD
Efficiency of binding, OD ([1]; 5 mg talc, Cold Avidin only 400 ug/mL): 1.01 OD
Efficiency of binding, OD ([1]; 5 mg talc, Cold Avidin only 4 mg/mL): 1.23 OD
avidin bound by talc [5]: > 2 nanograms of avidin per mg of talc
AVIDIN in supernatant after incubation ([6]; 198.4 μg Avidin + 100 mg talc): 13.7 μg/0.5 ml
Avidin binded to talc ([6]; 198.4 μg Avidin + 100 mg talc): 184.7 µg
Saturation of AVIDIN to the combine surface of 100 mg talc ([6]; 198.4 μg Avidin added): 2.48 μg/cm^2
AVIDIN in supernatant after incubation ([6]; 198.4 μg Avidin in 0.5 ml + 100 mg talc): 27.4 µg/mL
Amount of Avidin removed by wash ([6]; 198.4 μg, 1st wash with EDTA): 15.8 µg/mL
Amount of Avidin removed by wash ([6]; 198.4 μg, 1st wash with PBS): 31.4 µg/mL
Amount of Avidin removed by wash ([6]; 198.4 μg, 2nd wash with EDTA): 19.8 µg/mL
Amount of Avidin removed by wash ([6]; 198.4 μg, 2nd wash with PBS): 27.6 µg/mL
Amount of Avidin removed by wash ([6]; 198.4 μg, 3rd wash with EDTA): 13 µg/mL
Amount of Avidin removed by wash ([6]; 198.4 μg, 3rd wash with PBS): 32.7 µg/mL
AVIDIN in supernatant after incubation ([6]; 1650.3 μg Avidin + 100 mg talc): 1185 μg/0.5 ml
Avidin binded to talc ([6]; 1650.3 μg Avidin + 100 mg talc): 465.3 µg
Saturation of AVIDIN to the combine surface of 100 mg talc ([6]; 1650.3 μg Avidin added): 6.25 μg/cm^2
AVIDIN in supernatant after incubation ([6]; 1650.3 μg Avidin in 0.5 ml + 100 mg talc): 2370 µg/mL
Amount of Avidin removed by wash ([6]; 1650.3 μg, 1st wash with EDTA): 13.2 µg/mL
Amount of Avidin removed by wash ([6]; 1650.3 μg, 1st wash with PBS): 307.4 µg/mL
Amount of Avidin removed by wash ([6]; 1650.3 μg, 2nd wash with EDTA): 12.3 µg/mL
Amount of Avidin removed by wash ([6]; 1650.3 μg, 2nd wash with PBS): 67.3 µg/mL
Amount of Avidin removed by wash ([6]; 1650.3 μg, 3rd wash with EDTA): 13.2 µg/mL
Amount of Avidin removed by wash ([6]; 1650.3 μg, 3rd wash with PBS): 40.3 µg/mL
saturation of talc particles ([6]; highest concentration of Avidin (50 μM), 100 mg talc): not fully saturated
Substance: Avidin: Avidin from egg white (Sigma, Cat. A9275), unlabeled (cold) Avidin
Avidin binded with talc ([2]; 330 μg/ml Avidin added): 110.4 µg/mL
Avidin in supernatant ([2]; 330 μg/ml Avidin added): 219.6 μg, ml
Avidin per talc surface ([2]; 330 μg/ml Avidin added): 1.5 μg/cm2
Avidin binded with talc ([2]; 3300 μg/ml Avidin added): 2452.7 µg/mL
Avidin in supernatant ([2]; 3300 μg/ml Avidin added): 847.3 μg, ml
Avidin per talc surface ([2]; 3300 μg/ml Avidin added): 33.0 μg/cm2 and 33 μg/cm2
Avidin binded with talc ([2]; 6600 μg/ml Avidin added): 4631.5 µg/mL
Avidin in supernatant ([2]; 6600 μg/ml Avidin added): 1968.5 μg, ml
Avidin per talc surface ([2]; 6600 μg/ml Avidin added): 62.3 μg/cm2
Avidin binded with talc ([2]; 13200 μg/ml Avidin added): 7952.7 µg/mL
Avidin in supernatant ([2]; 13200 μg/ml Avidin added): 5247.3 μg, ml
Avidin per talc surface ([2]; 13200 μg/ml Avidin added): 106.9 μg/cm2
Avidin binded with talc ([2]; 19800 μg/ml Avidin added): 12166.7 µg/mL
Avidin in supernatant ([2]; 19800 μg/ml Avidin added): 7633.3 μg, ml
Avidin per talc surface ([2]; 19800 μg/ml Avidin added): 163.5 μg/cm2
saturation of talc particles ([2]; increasing concentrations of Avidin): not fully saturated
binding to talc after washing [3]: remained bound to talc despite multiple washes
stability of binding of Avidin to talc [4]: unchanged at 48 hours
release of Avidin from talc surface during washes ([6]; 3x PBS, 3x 0.2% EDTA): Only first wash removed quantifiable amounts of Avidin from talc surface
